Measurements published in ChEMBL document CHEMBL1201862, “PubChem BioAssay data set” (2004).
Values joined by “and” are separate entries in the source; they are usually repeats but may differ in a detail not shown here. Equal entries are not always repeated.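 These data come from cells grown in 96-well plates and exposed to compound for 48 hours at five concentrations. GI50 marks 50% less growth.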 Active and inactive are the calls of the source. No stated cut-off is given here; in the data, active = GI50 up to about 1.1 µM and inactive = higher.

What was measured:
Experiment in all cases: NCI anticancer screen, dose series, 48 h
786-0 = test system: 786-0
A498 = test system: A498
A549 = test system: A549
ACHN = test system: ACHN
BT-549 = test system: BT-549
CAKI-1 = test system: CAKI-1
CCRF-CEM = test system: CCRF-CEM
COLO 205 = test system: COLO 205
DU-145 = test system: DU-145
EKVX = test system: EKVX
HCC 2998 = test system: HCC 2998
HCT-116 = test system: HCT-116
HCT-15 = test system: HCT-15
HL-60 = test system: HL-60
HOP-62 = test system: HOP-62
HOP-92 = test system: HOP-92
HT-29 = test system: HT-29
IGROV-1 = test system: IGROV-1
K562 = test system: K562
KM12 = test system: KM12
LOX IMVI = test system: LOX IMVI
M14 = test system: M14
MCF7 = test system: MCF7
MDA-MB-231 = test system: MDA-MB-231
MDA-MB-435 = test system: MDA-MB-435
MDA-N = test system: MDA-N
MOLT-4 = test system: MOLT-4
Malme-3M = test system: Malme-3M
NCI-H226 = test system: NCI-H226
NCI-H23 = test system: NCI-H23
NCI-H460 = test system: NCI-H460
NCI-H522 = test system: NCI-H522
NCI/ADR-RES = test system: NCI/ADR-RES
OVCAR-3 = test system: OVCAR-3
OVCAR-4 = test system: OVCAR-4
OVCAR-5 = test system: OVCAR-5
OVCAR-8 = test system: OVCAR-8
PC-3 = test system: PC-3
RXF 393 = test system: RXF 393
SF-268 = test system: SF-268
SF-295 = test system: SF-295
SF-539 = test system: SF-539
SK-MEL-28 = test system: SK-MEL-28
SK-MEL-2 = test system: SK-MEL-2
SK-OV-3 = test system: SK-OV-3
SN12C = test system: SN12C
SNB-19 = test system: SNB-19
SNB-75 = test system: SNB-75
SR = test system: SR
SW-620 = test system: SW-620
T47D = test system: T47D
TK-10 = test system: TK-10
U-251 = test system: U-251
UACC-257 = test system: UACC-257
UACC-62 = test system: UACC-62
UO-31 = test system: UO-31
RPMI-8226 = test system: RPMI-8226
SK-MEL-5 = test system: SK-MEL-5
Hs-578T = test system: Hs-578T

Measured: GI50

COc1ccc(N2C(=O)C3c4[nH]c5ccccc5c4C4c5ccccc5CC4C3C2=O)cc1 (stereo not given)
inactive: 786-0 > 100 µM | A498 > 100 µM | A549 > 100 µM | ACHN > 100 µM | BT-549 > 100 µM | CAKI-1 > 100 µM | CCRF-CEM > 100 µM | COLO 205 > 100 µM | DU-145 > 100 µM | EKVX > 100 µM | HCC 2998 > 100 µM | HCT-116 > 100 µM | HL-60 > 100 µM | HOP-62 > 100 µM | HOP-92 > 100 µM | HT-29 > 100 µM | IGROV-1 > 100 µM | K562 > 100 µM | KM12 > 100 µM | LOX IMVI > 100 µM | M14 > 100 µM | MCF7 > 100 µM | MDA-MB-231 > 100 µM | MDA-MB-435 > 100 µM | MDA-N > 100 µM | MOLT-4 > 100 µM | Malme-3M > 100 µM | NCI-H226 > 100 µM | NCI-H23 > 100 µM | NCI-H460 > 100 µM | NCI-H522 > 100 µM | NCI/ADR-RES > 100 µM | OVCAR-3 > 100 µM | OVCAR-4 > 100 µM | OVCAR-5 > 100 µM | OVCAR-8 > 100 µM | PC-3 > 100 µM | RXF 393 > 100 µM | SF-268 > 100 µM | SF-295 > 100 µM | SF-539 > 100 µM | SK-MEL-28 > 100 µM | SK-MEL-2 > 100 µM | SK-OV-3 > 100 µM | SN12C > 100 µM | SNB-19 > 100 µM | SNB-75 > 100 µM | SR > 100 µM | SW-620 > 100 µM | T47D > 100 µM | TK-10 > 100 µM | U-251 > 100 µM | UACC-257 > 100 µM | UACC-62 > 100 µM | UO-31 > 100 µM
> 100 µM: HCT-15

CCN(CC)CCCNC(=O)c1cc(-c2nccn2C)nc2ccccc12
> 100 µM: HCT-15
inactive: 786-0 > 100 µM | A498 > 100 µM | A549 > 100 µM | ACHN > 100 µM | BT-549 > 100 µM | CAKI-1 > 100 µM | CCRF-CEM > 100 µM | COLO 205 > 100 µM | DU-145 > 100 µM | EKVX > 100 µM | HCC 2998 > 100 µM | HCT-116 > 100 µM | HL-60 > 100 µM | HOP-62 > 100 µM | HOP-92 > 100 µM | HT-29 > 100 µM | IGROV-1 > 100 µM | K562 > 100 µM | KM12 > 100 µM | LOX IMVI > 100 µM | M14 > 100 µM | MCF7 > 100 µM | MDA-MB-231 > 100 µM | MDA-MB-435 > 100 µM | MDA-N > 100 µM | MOLT-4 > 100 µM | Malme-3M > 100 µM | NCI-H226 > 100 µM | NCI-H23 > 100 µM | NCI-H460 59.7 µM | NCI-H522 > 100 µM | NCI/ADR-RES > 100 µM | OVCAR-4 61.2 µM | OVCAR-5 > 100 µM | OVCAR-8 > 100 µM | PC-3 > 100 µM | RPMI-8226 > 100 µM | RXF 393 > 100 µM | SF-268 > 100 µM | SF-539 > 100 µM | SK-MEL-2 > 100 µM | SK-MEL-5 > 100 µM | SN12C > 100 µM | SNB-19 > 100 µM | SNB-75 57.7 µM | SR > 10 µM | SW-620 > 100 µM | T47D > 100 µM | TK-10 > 100 µM | U-251 > 100 µM | UACC-257 > 100 µM | UACC-62 > 100 µM | UO-31 50.2 µM

COc1cc2c3c(c4cc(OC)c(OC)cc4c2cc1OC)CN1CCC[C@H]1C3 [(S)-TYLOPHORINE]
active: A498 < 0.01 µM | A549 < 10 nM and 13.2 nM | ACHN < 10 nM and 14.5 nM | BT-549 22.5 nM and 39.5 nM | CAKI-1 < 16.3 nM and 25.8 nM | HCT-116 < 10 nM and 17.9 nM | Hs-578T 0.404 µM | LOX IMVI < 10 nM and 11.9 nM | MCF7 0.0107 µM | MDA-MB-231 < 0.0109 µM | NCI-H226 0.0294 µM | NCI-H522 56.6 nM and < 40.6 nM | OVCAR-3 58.9 nM and 42.3 nM | OVCAR-5 < 12.1 nM and 16.6 nM | SK-MEL-28 < 13.7 nM and 9.06 nM | SK-OV-3 < 12.2 nM and 12.6 nM | SNB-19 < 10 nM and 9.35 nM | TK-10 < 16.7 nM and 19.4 nM | UACC-257 14.3 nM and 26.6 nM | UO-31 39.9 nM and < 20.8 nM
